The source of these data is patent US20140341813A1, “INDOCYANINE GREEN-CONTAINING PARTICLE AND METHOD OF PRODUCING THE PARTICLE” (CANON KABUSHIKI KAISHA, priority 2013, published 2014).

Series [1] relates to rat. The following applies: oral; cited from earlier work.
A further series is described as follows: Water solubility of urea. Format: physicochemical. The following applies: calculated from water solubility and molecular weight 60.06.
A further series concerns mouse. Conditions: intravenous injection; cited from earlier work.
Series [2] is described as follows: Spectral shift of ICG aqueous solutions before and after heating (J-aggregate formation and suppression). Format: physicochemical. As for the experimental part:
FIG. 4 and FIG. 5 show the results of wavelength shifts based on additive concentration series. […] The axis of abscissa of each square indicates a wavelength, and values at its left and right ends are 500 nm and 950 nm, respectively, and the axis of ordinate thereof indicates an absorbance and its scale is arbitrary. The additive in this case refers to urea.
A third square from the left end corresponds to a solution to which the additive is added at a concentration one-half as high as that of the second square.
A second square from the left end corresponds to a 1.5 mM ICG aqueous solution, and an upper stage and a lower stage show spectra before and after the heating, respectively. A third square corresponds to an ICG aqueous solution having a concentration one-half as high as that of the second square.

Series [3] concerns rat. Conditions: intravenous injection; cited from earlier work.
Series [4] has as its system rat. Nature of the series: Urea 50% lethal dose LD50, oral.

`NC(N)=O` [urea]: the “50% lethal dose LD50” value with rat [1] is 8,500 mg/kg. The “amount of urea that dissolves (molar)” value in “Water solubility of urea” was “up to 17.9 M”. The LD50 entry with mouse and in the series on rat [3] was “around 5,000 mg/kg” each time. In addition, the “J-aggregation of ICG after heating with urea added” value in series [2] (1.5 mM ICG aqueous solution + 100 mM urea, heating at 60° C. for 30 minutes) is reported as “the J-aggregation is suppressed”. The “formation of the H-aggregate of ICG (absorption around 700 nm) with urea added” value in series [2] (1.5 mM ICG, urea added) was “suppresses the formation of the H-aggregate”. For the same compound, the “ratio of urea amount in 10 ml of injection at 10 M to LD50 in terms of a body weight of 50 kg” value in the series with rat [4] (6.006 g/425 g) is given as 1.41×10^−2. Besides, in the series with rat [4] (8.5 g/kg × 50 kg), the “50% lethal dose converted in terms of a body weight of 50 kg” value was 425 g.
As for `O=C(O)CC(O)(CC(=O)O)C(=O)O` [citric acid], in series [2] (1.5 mM ICG, citric acid 100 mM or less, free of urea, 60° C. for 30 minutes), the “J-aggregate formation of ICG in citric acid after heating” value is reported as “a J-aggregate is formed”. Further, in series [2] (1.5 mM ICG, free of urea, 60° C. for 30 minutes), the “citric acid concentration above which agglomeration precipitation occurs” value is “higher than 12.5 mM”.
